# According to ChEMBL document CHEMBL1201862, “PubChem BioAssay data set” (2004):
# The source made the active and inactive calls.
# How the values were obtained:
# [1] = A cytotoxicity screen of small molecule inhibitors of the PhoP region in Salmonella typhi identified in the primary screen. [Related pubchem assays: 1850, 1864, 1985 ]; assay type: functional
# Kallikrein-7 = Kallikrein-7 (Homo sapiens, UniProt P49862); test: Fluorescence Intensity-based biochemical primary high throughput dose response assay to identify activators of kallikrein-7 (K7) zymogen.
# [2] = Dd2 malaria parasite growth inhibition potency – SYBR Green, dry powder samples, dose response (AID 1159566); assay type: functional, cell-based;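 also: potency for growth inhibition with lower SYBR green DNA signal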
# [3] = toxicity to human HepG2 hepatoma cells – cell-based, plate reader, dry powder samples, cytotoxicity control, dose response (AID 1159569); assay type: functional;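 also: inhibitor potency with signal falling toward the positive control level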
# [4] = growth inhibition of yeast DHODH-expressing 3D7 parasites – SYBR Green, dry powder samples, dose response (AID 1159570); assay type: functional, cell-based;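 also: parasite growth measured after 72 hours of compound exposure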
# [5] = P. falciparum Dd2 growth inhibitors, dose response, SYBR Green, cherry-picked samples (AID 1159567); assay type: functional, cell-based
# [6] = growth inhibition of PfATP4-mutant resistant parasites – NITD609-resistant line, SYBR Green, dry powder, dose response (AID 1159571); assay type: functional, cell-based;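 also: parasites synchronized at ring stage by sorbitol before testing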
# cells [7] = assay type: functional, cell-based
# [8] = target: T1, DNA repair and recombination protein RAD54-like (Homo sapiens, UniProt Q92698); test: RAD54 Holliday junction migration blockers – biochemical, fluorescence, cherry-picked samples, dose series, confirmation (AID 651657); assay type: functional
# T1 sequence (Q92698 whole entry): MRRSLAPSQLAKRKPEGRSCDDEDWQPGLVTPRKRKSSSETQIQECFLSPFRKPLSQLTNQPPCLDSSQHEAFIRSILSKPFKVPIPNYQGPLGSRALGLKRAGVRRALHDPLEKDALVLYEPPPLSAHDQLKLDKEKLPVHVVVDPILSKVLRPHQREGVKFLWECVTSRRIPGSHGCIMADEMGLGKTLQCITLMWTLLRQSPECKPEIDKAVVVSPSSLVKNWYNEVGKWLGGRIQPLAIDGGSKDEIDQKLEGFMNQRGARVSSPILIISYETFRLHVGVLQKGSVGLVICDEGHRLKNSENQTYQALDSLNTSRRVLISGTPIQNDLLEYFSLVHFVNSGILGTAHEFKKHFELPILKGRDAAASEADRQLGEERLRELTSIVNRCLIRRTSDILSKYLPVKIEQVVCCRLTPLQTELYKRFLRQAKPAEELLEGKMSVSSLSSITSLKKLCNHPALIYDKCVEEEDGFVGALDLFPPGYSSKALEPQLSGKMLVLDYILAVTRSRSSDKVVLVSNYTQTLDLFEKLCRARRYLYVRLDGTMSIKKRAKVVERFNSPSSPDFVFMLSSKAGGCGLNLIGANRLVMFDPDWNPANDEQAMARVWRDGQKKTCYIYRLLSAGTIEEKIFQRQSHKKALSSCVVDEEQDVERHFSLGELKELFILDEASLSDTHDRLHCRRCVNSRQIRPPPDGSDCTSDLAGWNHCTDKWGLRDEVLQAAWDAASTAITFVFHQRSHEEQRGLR
# cells [9] = assay type: functional, cell-based; remark: listed apart in the source
# [10] = intracellular Trypanosoma cruzi inhibitors in host cells – cell-based, plate reader, cherry-pick samples, set 3, dose response (AID 651818); assay type: functional;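 also: compounds incubated with infected cells for about four days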
# [11] = target: DNA dC->dU-editing enzyme APOBEC-3A (Homo sapiens, UniProt P31941); test: Dose Response confirmation of small molecule APOBEC3A DNA Deaminase Inhibitors via a fluorescence-based single-stranded DNA deaminase assay. [Related pubchem assays (depositor defined):AID493011, AID493024]; assay type: functional
# [12] = target: DNA dC->dU-editing enzyme APOBEC-3G (Homo sapiens, UniProt Q9HC16); assay type: functional;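 also: Dose-response counterscreen measuring inhibition of APOBEC3G DNA deaminase activity, run while confirming APOBEC3A inhibitors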
# [13] = target: T2, Carboxy-terminal domain RNA polymerase II polypeptide A small phosphatase 1 (Homo sapiens, UniProt Q9GZU7); test: CTDSP1 inhibitors, concentration-response, biochemical, absorbance readout, ultra-high-throughput screen actives (AID 540297); assay type: functional
# T2 sequence (Q9GZU7 whole entry): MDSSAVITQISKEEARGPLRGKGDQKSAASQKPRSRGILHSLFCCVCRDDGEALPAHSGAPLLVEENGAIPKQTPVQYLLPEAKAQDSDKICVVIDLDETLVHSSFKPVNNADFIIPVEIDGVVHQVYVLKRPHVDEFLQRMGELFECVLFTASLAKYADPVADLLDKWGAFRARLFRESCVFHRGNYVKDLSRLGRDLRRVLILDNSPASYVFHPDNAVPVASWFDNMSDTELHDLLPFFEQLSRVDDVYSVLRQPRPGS
# Aminopeptidase N = target: T3, Aminopeptidase N (Plasmodium falciparum FcB1/Columbia, UniProt O96935); test: malaria alanyl aminopeptidase activity blockers – biochemical, fluorogenic H-Leu-NHMec substrate, 1536-well (AID 1445); parameters: species or system Plasmodium falciparum 3D7, 3D7
# T3 sequence (O96935 whole entry): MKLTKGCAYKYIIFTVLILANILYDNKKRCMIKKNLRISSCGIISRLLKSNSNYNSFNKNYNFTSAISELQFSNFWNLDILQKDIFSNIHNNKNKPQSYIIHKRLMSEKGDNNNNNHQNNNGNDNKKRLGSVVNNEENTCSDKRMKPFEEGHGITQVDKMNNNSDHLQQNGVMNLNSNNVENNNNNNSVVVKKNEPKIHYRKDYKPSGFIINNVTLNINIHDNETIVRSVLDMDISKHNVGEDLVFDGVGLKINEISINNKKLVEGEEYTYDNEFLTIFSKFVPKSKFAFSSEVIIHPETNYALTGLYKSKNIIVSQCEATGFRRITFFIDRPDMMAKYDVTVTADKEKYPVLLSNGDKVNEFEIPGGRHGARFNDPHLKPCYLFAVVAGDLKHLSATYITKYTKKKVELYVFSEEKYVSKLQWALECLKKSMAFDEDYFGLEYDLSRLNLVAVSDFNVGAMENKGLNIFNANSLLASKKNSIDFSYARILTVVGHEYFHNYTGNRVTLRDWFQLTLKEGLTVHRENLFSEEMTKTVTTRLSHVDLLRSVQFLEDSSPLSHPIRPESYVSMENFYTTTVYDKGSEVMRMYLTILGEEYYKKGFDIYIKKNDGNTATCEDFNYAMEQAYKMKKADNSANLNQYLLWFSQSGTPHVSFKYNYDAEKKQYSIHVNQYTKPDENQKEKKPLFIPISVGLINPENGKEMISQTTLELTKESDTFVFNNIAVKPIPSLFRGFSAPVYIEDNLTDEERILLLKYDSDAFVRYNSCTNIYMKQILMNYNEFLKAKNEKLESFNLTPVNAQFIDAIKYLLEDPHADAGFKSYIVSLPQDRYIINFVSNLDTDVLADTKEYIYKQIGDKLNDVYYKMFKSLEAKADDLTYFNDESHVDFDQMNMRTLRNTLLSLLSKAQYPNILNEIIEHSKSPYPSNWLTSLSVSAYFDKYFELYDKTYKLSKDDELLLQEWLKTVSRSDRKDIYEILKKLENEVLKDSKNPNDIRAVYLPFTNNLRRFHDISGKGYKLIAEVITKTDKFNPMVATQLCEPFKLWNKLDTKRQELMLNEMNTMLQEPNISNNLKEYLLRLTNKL
# Fatty acid synthase [14] = target: T4, Fatty acid synthase (Homo sapiens, UniProt P49327); test: inhibition of human FAS-TE enzyme activity – biochemical, kinetic fluorescence intensity, dose response (AID 624326); assay type: functional;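 also: rate of fluorescence rise from hydrolysis of a fluorogenic O-methyl fluorescein ester substrate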
# Fatty acid synthase [15] = target: T4, Fatty acid synthase; test: inhibition of human FAS-TE enzyme activity – biochemical, endpoint fluorescence intensity, uHTS hits, dose response (AID 624327); assay type: functional;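 also: fluorescence from hydrolysis of an O-methyl fluorescein acyl ester substrate by the enzyme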
# Ion channel NompC = Ion channel NompC (Danio rerio, UniProt Q7T1G6); test: Fluorescence counterscreen assay for TRPML3 agonists: dose response cell-based high-throughput screening assay to identify agonists of the transient receptor potential channel N1 (TRPN1). [Related pubchem assays: 1526, 1424, 1448 ]; assay type: functional
# Mucolipin-3 = target: T5, Mucolipin-3 (Homo sapiens, UniProt Q8TDD5); test: Dose response cell-based high-throughput screening assay for agonists of the transient receptor potential channel ML3 (TRPML3). [Related pubchem assays: 1526, 1424, 1448 ]; assay type: functional
# T5 sequence (Q8TDD5 whole entry): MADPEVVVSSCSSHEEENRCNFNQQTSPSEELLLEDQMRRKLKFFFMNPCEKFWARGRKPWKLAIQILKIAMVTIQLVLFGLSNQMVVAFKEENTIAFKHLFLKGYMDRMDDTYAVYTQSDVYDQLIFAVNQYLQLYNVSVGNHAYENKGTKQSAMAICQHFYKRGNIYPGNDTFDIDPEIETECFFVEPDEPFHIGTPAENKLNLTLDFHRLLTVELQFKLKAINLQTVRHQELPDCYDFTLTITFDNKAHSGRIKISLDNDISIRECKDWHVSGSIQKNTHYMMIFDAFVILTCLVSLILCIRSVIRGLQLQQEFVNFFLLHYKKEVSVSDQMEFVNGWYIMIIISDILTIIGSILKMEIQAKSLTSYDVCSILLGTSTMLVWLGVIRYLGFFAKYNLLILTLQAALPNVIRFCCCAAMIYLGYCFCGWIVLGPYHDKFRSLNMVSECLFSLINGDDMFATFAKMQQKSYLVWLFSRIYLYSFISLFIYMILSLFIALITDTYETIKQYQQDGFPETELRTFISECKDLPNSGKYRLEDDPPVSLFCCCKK
# [16] = target: T6, Probable nicotinate-nucleotide adenylyltransferase (Staphylococcus aureus (strain N315), UniProt P65502); assay type: functional, Staphylococcus aureus subsp. aureus N315; conditions: read-out: IC50_Mean;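 as to IC50 Mean: confirmatory dose-response retesting of NadD inhibitor hits first found in an ultra-high-throughput screen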
# [17] = target: T6, Probable nicotinate-nucleotide adenylyltransferase; assay type: functional, Staphylococcus aureus subsp. aureus N315
# Beta-galactosidase = Beta-galactosidase (Escherichia coli, UniProt Q8VNN2); test: detection-enzyme interference by beta-gal modulators – biochemical, E. coli enzyme, set 3, artefact control for CCR6 antagonist project, dose response (AID 504712); assay type: functional
# HEK293 [18] = test: cells; assay type: functional, cell-based; conditions: Homo sapiens
# HEK293 [19] = test: cells; assay type: functional, cell-based; conditions: Homo sapiens; remark: listed apart in the source
# HEK293 [20] = test: NOD2 signaling inhibitors in MDP-stimulated cells, cell-based, uHTS, luminescence (AID 2001); assay type: functional; conditions: Homo sapiens
# HEK293 [21] = test: inhibition of NOD1-driven NF-kB reporter – cell-based, luminescence, uHTS, primary screen (AID 1578); assay type: functional; conditions: Homo sapiens
# Ion channel NompC, sequence (Q7T1G6 whole entry): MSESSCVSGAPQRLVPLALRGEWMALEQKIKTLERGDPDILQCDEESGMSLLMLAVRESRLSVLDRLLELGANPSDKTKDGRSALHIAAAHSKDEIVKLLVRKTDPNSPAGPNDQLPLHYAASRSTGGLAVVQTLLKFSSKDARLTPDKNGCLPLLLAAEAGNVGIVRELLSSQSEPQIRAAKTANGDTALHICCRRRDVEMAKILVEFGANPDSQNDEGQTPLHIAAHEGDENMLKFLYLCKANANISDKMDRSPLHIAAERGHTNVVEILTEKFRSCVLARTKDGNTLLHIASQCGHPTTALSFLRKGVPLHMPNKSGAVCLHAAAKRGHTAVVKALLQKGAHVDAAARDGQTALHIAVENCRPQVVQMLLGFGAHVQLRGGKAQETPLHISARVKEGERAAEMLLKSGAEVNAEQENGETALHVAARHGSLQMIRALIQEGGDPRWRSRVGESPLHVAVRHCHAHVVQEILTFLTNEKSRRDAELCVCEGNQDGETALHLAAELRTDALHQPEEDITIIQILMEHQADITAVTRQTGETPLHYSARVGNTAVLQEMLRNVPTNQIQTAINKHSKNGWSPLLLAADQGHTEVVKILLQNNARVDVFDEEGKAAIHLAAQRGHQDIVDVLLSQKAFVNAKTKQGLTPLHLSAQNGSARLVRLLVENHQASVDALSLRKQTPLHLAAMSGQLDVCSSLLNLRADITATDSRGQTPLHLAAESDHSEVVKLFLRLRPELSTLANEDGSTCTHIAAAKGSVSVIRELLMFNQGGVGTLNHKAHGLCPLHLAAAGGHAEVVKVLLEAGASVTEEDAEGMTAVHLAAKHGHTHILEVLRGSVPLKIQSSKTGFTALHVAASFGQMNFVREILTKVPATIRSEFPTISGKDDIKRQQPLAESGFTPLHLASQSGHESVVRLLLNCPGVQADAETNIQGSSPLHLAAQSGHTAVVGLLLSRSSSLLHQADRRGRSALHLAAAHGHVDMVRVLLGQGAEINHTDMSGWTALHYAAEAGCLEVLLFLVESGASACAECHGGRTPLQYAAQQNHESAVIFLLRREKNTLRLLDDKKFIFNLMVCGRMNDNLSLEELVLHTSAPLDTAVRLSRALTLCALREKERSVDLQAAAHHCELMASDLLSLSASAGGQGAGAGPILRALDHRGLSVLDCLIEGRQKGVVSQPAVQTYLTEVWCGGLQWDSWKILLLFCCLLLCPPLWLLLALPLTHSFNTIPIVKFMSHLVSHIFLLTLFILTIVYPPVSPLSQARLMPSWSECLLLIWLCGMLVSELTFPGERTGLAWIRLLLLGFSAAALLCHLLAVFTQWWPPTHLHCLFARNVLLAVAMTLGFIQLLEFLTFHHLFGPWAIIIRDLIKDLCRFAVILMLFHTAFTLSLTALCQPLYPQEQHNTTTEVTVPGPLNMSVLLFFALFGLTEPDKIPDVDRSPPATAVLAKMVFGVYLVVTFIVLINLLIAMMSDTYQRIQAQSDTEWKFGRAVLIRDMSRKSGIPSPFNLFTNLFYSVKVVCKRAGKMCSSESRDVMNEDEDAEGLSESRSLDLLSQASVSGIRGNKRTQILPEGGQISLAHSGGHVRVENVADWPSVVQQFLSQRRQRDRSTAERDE
# T6 sequence (P65502 whole entry): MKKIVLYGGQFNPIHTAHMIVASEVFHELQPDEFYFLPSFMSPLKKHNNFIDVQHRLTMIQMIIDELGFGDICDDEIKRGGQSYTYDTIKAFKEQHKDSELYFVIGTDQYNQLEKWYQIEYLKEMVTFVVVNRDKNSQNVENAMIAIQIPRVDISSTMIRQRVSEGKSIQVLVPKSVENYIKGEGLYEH
# T4 sequence (P49327 whole entry): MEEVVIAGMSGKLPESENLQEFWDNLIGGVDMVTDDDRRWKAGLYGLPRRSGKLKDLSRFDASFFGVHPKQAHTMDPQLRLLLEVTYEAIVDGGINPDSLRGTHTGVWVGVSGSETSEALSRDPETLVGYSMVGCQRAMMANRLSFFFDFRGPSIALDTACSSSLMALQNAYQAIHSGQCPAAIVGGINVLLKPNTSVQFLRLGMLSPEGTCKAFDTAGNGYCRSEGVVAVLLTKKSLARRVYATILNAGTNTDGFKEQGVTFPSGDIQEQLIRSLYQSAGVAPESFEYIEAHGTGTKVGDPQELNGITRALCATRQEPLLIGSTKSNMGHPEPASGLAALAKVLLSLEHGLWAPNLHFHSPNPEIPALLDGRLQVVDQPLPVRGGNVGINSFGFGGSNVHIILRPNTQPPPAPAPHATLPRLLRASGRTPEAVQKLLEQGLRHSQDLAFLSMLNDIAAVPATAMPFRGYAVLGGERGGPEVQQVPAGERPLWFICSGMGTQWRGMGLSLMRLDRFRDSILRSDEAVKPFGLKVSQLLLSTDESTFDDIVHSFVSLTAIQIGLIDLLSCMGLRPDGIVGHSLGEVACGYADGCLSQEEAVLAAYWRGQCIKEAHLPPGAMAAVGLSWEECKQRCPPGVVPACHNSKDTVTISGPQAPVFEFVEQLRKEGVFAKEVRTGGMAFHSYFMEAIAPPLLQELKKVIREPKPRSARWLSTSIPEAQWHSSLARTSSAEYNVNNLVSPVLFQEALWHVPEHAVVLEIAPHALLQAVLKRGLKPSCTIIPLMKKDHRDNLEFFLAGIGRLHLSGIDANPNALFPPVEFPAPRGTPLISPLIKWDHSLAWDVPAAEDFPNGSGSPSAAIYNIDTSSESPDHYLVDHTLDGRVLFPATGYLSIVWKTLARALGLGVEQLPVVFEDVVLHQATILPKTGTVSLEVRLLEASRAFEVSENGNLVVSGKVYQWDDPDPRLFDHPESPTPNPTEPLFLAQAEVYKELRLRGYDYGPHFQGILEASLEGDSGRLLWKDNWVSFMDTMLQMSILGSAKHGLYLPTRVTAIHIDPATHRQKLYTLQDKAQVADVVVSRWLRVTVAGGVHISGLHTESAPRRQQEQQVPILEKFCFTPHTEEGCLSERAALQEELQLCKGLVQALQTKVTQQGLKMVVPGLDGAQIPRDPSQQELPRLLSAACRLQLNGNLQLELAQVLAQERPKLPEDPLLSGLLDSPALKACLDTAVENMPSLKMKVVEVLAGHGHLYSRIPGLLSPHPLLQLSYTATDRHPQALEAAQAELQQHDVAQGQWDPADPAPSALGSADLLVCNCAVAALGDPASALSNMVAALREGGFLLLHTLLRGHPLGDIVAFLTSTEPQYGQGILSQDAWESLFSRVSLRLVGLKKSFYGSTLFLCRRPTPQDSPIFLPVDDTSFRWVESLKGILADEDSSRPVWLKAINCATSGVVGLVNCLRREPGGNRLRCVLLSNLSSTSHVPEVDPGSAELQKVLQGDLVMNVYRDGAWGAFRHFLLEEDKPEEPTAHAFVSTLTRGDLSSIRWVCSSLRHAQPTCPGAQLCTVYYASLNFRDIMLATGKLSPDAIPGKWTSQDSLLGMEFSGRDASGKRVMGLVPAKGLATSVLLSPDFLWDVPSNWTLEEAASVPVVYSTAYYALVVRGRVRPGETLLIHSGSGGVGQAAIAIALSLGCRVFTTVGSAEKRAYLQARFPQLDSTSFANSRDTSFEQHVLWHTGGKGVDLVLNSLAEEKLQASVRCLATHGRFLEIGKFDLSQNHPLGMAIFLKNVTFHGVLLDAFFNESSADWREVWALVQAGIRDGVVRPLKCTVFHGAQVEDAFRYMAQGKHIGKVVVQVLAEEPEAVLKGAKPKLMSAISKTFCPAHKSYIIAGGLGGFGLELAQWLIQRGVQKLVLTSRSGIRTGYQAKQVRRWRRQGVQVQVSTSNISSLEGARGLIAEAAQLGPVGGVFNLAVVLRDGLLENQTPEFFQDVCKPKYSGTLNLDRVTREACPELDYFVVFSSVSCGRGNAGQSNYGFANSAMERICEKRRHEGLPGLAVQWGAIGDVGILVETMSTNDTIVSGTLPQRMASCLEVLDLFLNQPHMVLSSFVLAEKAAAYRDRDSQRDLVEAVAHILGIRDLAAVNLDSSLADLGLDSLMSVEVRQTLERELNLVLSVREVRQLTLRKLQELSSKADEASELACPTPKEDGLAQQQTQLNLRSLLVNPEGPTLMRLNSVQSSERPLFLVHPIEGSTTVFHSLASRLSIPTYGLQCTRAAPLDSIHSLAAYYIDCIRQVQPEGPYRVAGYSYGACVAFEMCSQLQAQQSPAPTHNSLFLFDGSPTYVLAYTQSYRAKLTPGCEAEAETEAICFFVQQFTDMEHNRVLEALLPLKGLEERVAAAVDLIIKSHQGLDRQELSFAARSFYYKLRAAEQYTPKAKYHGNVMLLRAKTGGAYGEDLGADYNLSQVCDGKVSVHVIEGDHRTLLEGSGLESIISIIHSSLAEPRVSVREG
# Kallikrein-7, sequence (P49862 whole entry): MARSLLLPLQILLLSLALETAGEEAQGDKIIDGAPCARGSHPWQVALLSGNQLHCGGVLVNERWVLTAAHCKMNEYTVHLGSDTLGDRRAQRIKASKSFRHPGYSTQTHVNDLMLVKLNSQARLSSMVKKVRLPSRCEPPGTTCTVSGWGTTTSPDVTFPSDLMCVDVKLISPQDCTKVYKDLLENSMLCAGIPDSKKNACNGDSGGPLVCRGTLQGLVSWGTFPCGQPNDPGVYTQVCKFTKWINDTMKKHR
# DNA dC->dU-editing enzyme APOBEC-3G, sequence (Q9HC16 whole entry, the tested form may be a part): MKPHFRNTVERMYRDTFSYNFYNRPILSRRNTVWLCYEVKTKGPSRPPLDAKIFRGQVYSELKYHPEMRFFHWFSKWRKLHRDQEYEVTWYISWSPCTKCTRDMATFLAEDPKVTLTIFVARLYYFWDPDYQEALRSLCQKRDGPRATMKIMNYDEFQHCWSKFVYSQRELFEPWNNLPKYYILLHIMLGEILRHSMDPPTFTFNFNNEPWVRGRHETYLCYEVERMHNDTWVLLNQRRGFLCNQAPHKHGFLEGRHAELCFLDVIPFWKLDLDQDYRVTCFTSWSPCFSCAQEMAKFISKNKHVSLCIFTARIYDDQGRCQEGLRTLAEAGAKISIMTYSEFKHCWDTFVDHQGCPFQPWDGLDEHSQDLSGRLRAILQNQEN
compound,measurement,setting,value
CN(C)/C=N/c1ncc(C(=O)c2ccc(Cl)cc2)s1,EC50,[1],> 50 µM (active)
CC(=O)Nc1ccc(C2Nc3ccccc3C(=O)N2C2CCCCC2)cc1 (stereo not given),EC50,Kallikrein-7,> 69.5 µM (inactive)
COc1cccc(NC(=O)N(C)C[C@@H]2Oc3cc(C#Cc4ccc(F)cc4)ccc3S(=O)(=O)N([C@@H](C)CO)C[C@@H]2C)c1,AC50,[2],1.18 µM (active)
same,AC50,[3],> 100 µM (inactive)
same,AC50,[4],1.04 µM (active)
same,AC50,[5],2 µM (active)
same,AC50,[6],1.22 µM (active)
O=C(CN1CCCC1)Nc1ccc(-c2nc3cc(NC(=O)CN4CCCC4)ccc3o2)cc1,EC50,[1],> 50 µM (active)
same,EC50,cells [7],> 350 µM (not active)
same,AC50,[8],12.5 µM (active)
same,EC50,cells [9],> 350 µM (not active)
C[C@@H]1CN([C@H](C)CO)C(=O)c2cccc(NC(=O)CCCCCC(=O)Nc3ccccc3N)c2O[C@@H]1CN(C)S(=O)(=O)c1ccccc1,AC50,[2],0.573 µM (active)
same,AC50,[3],70.7 µM (active)
same,AC50,[4],0.507 µM (active)
same,AC50,[10],3.26 µM (active)
same,AC50,[5],0.989 µM (active)
same,AC50,[6],0.549 µM (active)
CCN1CCN(S(=O)(=O)c2ccc(Cl)c(C(=O)Nc3cc(Cl)ccc3N3CCOCC3)c2)CC1,IC50,[11],5.15 µM (active)
same,IC50,[12],5.78 µM (active)
OC[C@@H]1[C@H](c2ccc(C3=CCCC3)cc2)[C@@H](CNC2CCCC2)N1CC1CC1,AC50,[2],0.843 µM (active)
same,AC50,[3],21.1 µM (active)
same,AC50,[4],1.2 µM (active)
same,AC50,[5],1.52 µM (active)
same,AC50,[6],0.78 µM (active)
O=C(O)c1cc(-c2ccc(/C=N/NC(=S)Nc3ccccc3)o2)ccc1Cl,IC50,[13],12.1 µM (active)
same,IC50,Aminopeptidase N,31.2 µM (active)
same,IC50,Fatty acid synthase [14],16.1 µM (active)
same,IC50,Fatty acid synthase [15],15.8 µM (active)
COc1ccc(C2=NN3C(C2)c2ccccc2OC3c2cccs2)cc1 (stereo not given),EC50,[1],> 50 µM (active)
Cc1cccc(CC2CC(=O)N(C3CCCCC3)C2=O)c1 (stereo not given),EC50,Ion channel NompC,> 29.9 µM (not active)
same,EC50,Mucolipin-3,3.41 µM (active)
CC1CCCCC1NC(=O)CSc1nnc(-c2ccccc2)n1N (stereo not given),IC50,Aminopeptidase N,46.8 µM (active)
CC1CCCC(C)N1C(=O)CN1CCN(c2nc(-c3ccc(F)cc3)cs2)CC1 (stereo not given),EC50,Ion channel NompC,> 29.9 µM (not active)
same,EC50,Mucolipin-3,27.4 µM (not active)
Nc1nccnc1C(=O)OCc1nc2sc3c(c2c(=O)[nH]1)CCCC3,EC50,Kallikrein-7,6.32 µM (active)
Cc1c([N+](=O)[O-])cc(N2C(=O)C=CC2=O)cc1[N+](=O)[O-],IC50,[16],6.33 µM (active)
same,IC50,[17],3.77 µM (active)
same,IC50,Beta-galactosidase,> 66.6 µM (inactive)
CCOc1ccc(NC(=O)c2ccccc2NS(=O)(=O)c2ccc(F)cc2)c([N+](=O)[O-])c1,IC50,HEK293 [18],19 µM (active)
same,IC50,HEK293 [19],> 20 µM (inactive)
same,IC50,HEK293 [20],11.8 µM (inactive)
same,EC50,Ion channel NompC,> 29.9 µM (not active)
same,EC50,HEK293 [21],4.21 µM (active)
same,EC50,Mucolipin-3,5.29 µM (active)
C[N+]12CN3CN(CN(C3)C1)C2,EC50,[1],> 50 µM (active)
C[C@H](CO)N1C[C@H](C)[C@@H](CN(C)Cc2cccc(C(=O)Nc3ccccc3N)c2)OCc2ccccc2-c2c(n(C)c3ccccc23)C1=O,AC50,[2],1.12 µM (active)
same,AC50,[3],72.9 µM (active)
same,AC50,[4],0.944 µM (active)
same,AC50,[5],1.21 µM (active)
same,AC50,[6],0.949 µM (active)
